Assay results as given in patent publication US20250262336A1, “[177LU] LUTETIUM-PSMA I&T COMPOSITION AND DOSIMETRY, KIT, METHOD OF MAKING, AND METHOD OF USING THEREOF” (Curium US LLC, priority 2023, published 2025).

Experiment: Cycle 1 normal organ dosimetry (SPECT/CT, TIACs, OLINDA 2.2.3)
Format: in vivo, human
Settings: for Absorbed Dose in Cycle 1, Mean / Absorbed Dose in Cycle 1, max / Absorbed Dose in Cycle 1, min: N = 16 patients imaged at cycle 1 and 3; for Absorbed Dose, Mean / Absorbed Dose, max / Absorbed Dose, median / Absorbed Dose, min: Cycle 1, n = 26
Experimental: This Example presents the biodistribution, dosimetry, and pharmacokinetics (PK) results of a PK/Dosimetry sub-study performed as part of a Phase III trial. Twenty-seven (27) patients were administered a target activity of 7.4±10% GBq of ^177Lu-PSMA-I&T and underwent single photon emission computed tomography (SPECT)/computed tomography (CT) imaging at four timepoints (4 h, 24 h, 48 h, and 168 h). Image data was analysed to compute time-activity curves (TACs) and subsequently time-integrated activity coefficients (TIACs) in each organ of interest and in organs showing appreciable and meaningful ^177Lu-PSMA-I&T activity. Organ Level Internal Dose Assessment (OLINDA 2.2.3) was used to compute organ and whole body absorbed radiation doses for each patient.
All participating sites underwent a rigorous site setup process during which all dose calibrators, scanners, and gamma counters used in the sub-study were calibrated. Sites were allowed to enroll patients in the sub-study only after the completion and approval of all site setup processes by Invicro. Patients underwent SPECT/CT imaging, with anatomical coverage typically extending from the salivary glands to the pelvis, following the administration of a targeted 7.4±10% GBq of ^177Lu-PSMA-I&T at cycle 1. SPECT/CT imaging was performed at four timepoints: 4 h, 24 h, 48 h, and 168 h post-injection. Additionally, a subset of patients imaged at Cycle 1 (16 out of 27), were also imaged at Cycle 3 (Table 2).
In general, raw projection data was acquired into a 128×128 matrix with medium energy general purpose (MEGP) collimation using a step and shoot acquisition mode, acquiring 60 projections per detector (180 degrees rotation per detector), 20 seconds per projection, with an acquisition zoom of 1.0, and a 20% (±10%) energy window centered over 208 keV.
A low-dose CT scan was performed prior to beginning the SPECT scan for attenuation correction. Sites were instructed to use the Institutional standard parameters for acquisition of the low-dose CT. Institutional standard reconstruction parameters were used. Scatter correction was required to be applied using a 20% (±10%) scatter window centered over 170 keV.
The imaging data was analyzed using Invicro's VivoQuant software, a validated software used in a 21 CFR § 11-compliant workflow. The general quantification approach was based on the principles detailed in the Medical Internal Radiation Dose (MIRD) Pamphlet No. 16, No 23, and No 26 as appropriate.
SPECT images were calibrated in units of Becquerel (Bq) using a calibration factor derived from a source of known activity, measured during site set up with the same acquisition and reconstruction parameters employed for patient imaging. A patient-specific calibration factor was also derived at each clinical time point after acquisition of the patient SPECT/CT. As a quality control measure, if the patient-specific calibration factor differed by more than 10% from the site set up calibration factor, an investigation was conducted.
Volume of interest (VOI) (kidneys, bladder, liver, lumbar vertebrae L2-L4, lacrimal glands, salivary glands [parotid and submandibular glands], and whole body) were delineated on each dataset by a trained image analyst. […] Organs were segmented either by drawing the entire contour of the organ, or by placing a sphere in a representative region of the organ and then multiplying by the organ's effective mass (based on patient's height and weight). Segmentation methods for each organ are specified in Table 3 and were consistently applied to each patient.
Clearance of the radiopharmaceutical was derived from a data-appropriate fit of each organ's TAC. Depending on the TAC's shape, the data was fitted with the sum of one, two, or three exponentials, or using a rise and fall model. Fitting was performed with in-house Python software. TIACs were calculated through analytical integration of the curve fit extrapolated to infinity. […]

[1] = cycle 1, target 7.4±10% GBq, mean±SD, patient 42-030 excluded

## O=C(O)CC[C@H](NC(=O)N[C@@H](CCCCNC(=O)CCCCCCC(=O)NCCCC[C@@H](NC(=O)[C@@H](Cc1ccccc1)NC(=O)[C@@H](Cc1ccc(O)c(I)c1)NC(=O)CC[C@H](C(=O)O)N1CCN(CC(=O)O)CCN(CC(=O)O)CCN(CC(=O)O)CC1)C(=O)O)C(=O)O)C(=O)O [^177Lu-PSMA-I&T, (3S,7 S,26R,29R,32R,37R)-29-benzyl-32-(4-hydroxy-3-iodobenzyl)-5,13,20,28,31,34-hexaoxo-37-(4,7,10-tris(carboxymethyl)-1,4,7,10-tetraazacyclododecan-1-yl)-4,6,12,21,27,30,33-heptaazaheptatriacontane-1,3,7,26,37-pentacarboxylic acid; lutetium-177 (III), metal not drawn]
Prostate
  Absorbed Dose in Cycle 1, Mean: 0.02 Gy/GBq
  Absorbed Dose in Cycle 1, max: 0.07 Gy/GBq
  Absorbed Dose in Cycle 1, min: 0.01 Gy/GBq
Rectum
  Absorbed Dose, Mean: 0.44 Gy/GBq
  Absorbed Dose, max: 1.46 Gy/GBq
  Absorbed Dose, median: 0.39 Gy/GBq
  Absorbed Dose, min: 0.01 Gy/GBq
  Absorbed Dose in Cycle 1, Mean: 0.50 Gy/GBq
  Absorbed Dose in Cycle 1, max: 1.46 Gy/GBq
  Absorbed Dose in Cycle 1, min: 0.01 Gy/GBq
Red Marrow
  Absorbed Dose, Mean: 0.08 Gy/GBq
  Absorbed Dose, max: 0.49 Gy/GBq
  Absorbed Dose, median: 0.03 Gy/GBq
  Absorbed Dose, min: 0.00 Gy/GBq
  Absorbed Dose in Cycle 1, Mean: 0.05 Gy/GBq
  Absorbed Dose in Cycle 1, max: 0.28 Gy/GBq
  Absorbed Dose in Cycle 1, min: 0.00 Gy/GBq
Right Colon
  Absorbed Dose, Mean: 0.25 Gy/GBq
  Absorbed Dose, max: 0.82 Gy/GBq
  Absorbed Dose, median: 0.22 Gy/GBq
  Absorbed Dose, min: 0.01 Gy/GBq
  Absorbed Dose in Cycle 1, Mean: 0.28 Gy/GBq
  Absorbed Dose in Cycle 1, max: 0.82 Gy/GBq
  Absorbed Dose in Cycle 1, min: 0.01 Gy/GBq
Salivary Glands
  Absorbed Dose, Mean: 0.19 Gy/GBq
  Absorbed Dose, max: 0.80 Gy/GBq
  Absorbed Dose, median: 0.15 Gy/GBq
  Absorbed Dose, min: 0.03 Gy/GBq
  Absorbed Dose in Cycle 1, Mean: 0.17 Gy/GBq
  Absorbed Dose in Cycle 1, max: 0.80 Gy/GBq
  Absorbed Dose in Cycle 1, min: 0.03 Gy/GBq
Small intestine
  Absorbed Dose, Mean: 0.05 Gy/GBq
  Absorbed Dose, max: 0.15 Gy/GBq
  Absorbed Dose, median: 0.04 Gy/GBq
  Absorbed Dose, min: 0.01 Gy/GBq
  Absorbed Dose in Cycle 1, Mean: 0.06 Gy/GBq
  Absorbed Dose in Cycle 1, max: 0.15 Gy/GBq
  Absorbed Dose in Cycle 1, min: 0.01 Gy/GBq
Spleen
  Absorbed Dose, Mean: 0.03 Gy/GBq
  Absorbed Dose, max: 0.11 Gy/GBq
  Absorbed Dose, median: 0.02 Gy/GBq
  Absorbed Dose, min: 0.01 Gy/GBq
  Absorbed Dose in Cycle 1, Mean: 0.03 Gy/GBq
  Absorbed Dose in Cycle 1, max: 0.11 Gy/GBq
  Absorbed Dose in Cycle 1, min: 0.01 Gy/GBq
Stomach Wall
  Absorbed Dose, Mean: 0.02 Gy/GBq
  Absorbed Dose, max: 0.07 Gy/GBq
  Absorbed Dose, median: 0.01 Gy/GBq
  Absorbed Dose, min: 0.00 Gy/GBq
  Absorbed Dose in Cycle 1, Mean: 0.02 Gy/GBq
  Absorbed Dose in Cycle 1, max: 0.07 Gy/GBq
  Absorbed Dose in Cycle 1, min: 0.00 Gy/GBq
Testes
  Absorbed Dose, Mean: 0.01 Gy/GBq
  Absorbed Dose, max: 0.07 Gy/GBq
  Absorbed Dose, median: 0.01 Gy/GBq
  Absorbed Dose, min: 0.00 Gy/GBq
  Absorbed Dose in Cycle 1, Mean: 0.01 Gy/GBq
  Absorbed Dose in Cycle 1, max: 0.07 Gy/GBq
  Absorbed Dose in Cycle 1, min: 0.00 Gy/GBq
Thymus
  Absorbed Dose, Mean: 0.01 Gy/GBq
  Absorbed Dose, max: 0.07 Gy/GBq
  Absorbed Dose, median: 0.01 Gy/GBq
  Absorbed Dose, min: 0.00 Gy/GBq
  Absorbed Dose in Cycle 1, Mean: 0.01 Gy/GBq
  Absorbed Dose in Cycle 1, max: 0.07 Gy/GBq
  Absorbed Dose in Cycle 1, min: 0.00 Gy/GBq
Thyroid
  Absorbed Dose, Mean: 0.01 Gy/GBq
  Absorbed Dose, max: 0.07 Gy/GBq
  Absorbed Dose, median: 0.01 Gy/GBq
  Absorbed Dose, min: 0.00 Gy/GBq
  Absorbed Dose in Cycle 1, Mean: 0.01 Gy/GBq
  Absorbed Dose in Cycle 1, max: 0.07 Gy/GBq
  Absorbed Dose in Cycle 1, min: 0.00 Gy/GBq
Total Body
  Absorbed Dose, Mean: 0.02 Gy/GBq
  Absorbed Dose, max: 0.09 Gy/GBq
  Absorbed Dose, median: 0.02 Gy/GBq
  Absorbed Dose, min: 0.01 Gy/GBq
  Absorbed Dose in Cycle 1, Mean: 0.02 Gy/GBq
  Absorbed Dose in Cycle 1, max: 0.09 Gy/GBq
  Absorbed Dose in Cycle 1, min: 0.01 Gy/GBq
Urinary Bladder wall
  Absorbed Dose, Mean: 0.41 Gy/GBq
  Absorbed Dose, max: 0.50 Gy/GBq
  Absorbed Dose, median: 0.41 Gy/GBq
  Absorbed Dose, min: 0.33 Gy/GBq
  Absorbed Dose in Cycle 1, Mean: 0.40 Gy/GBq
  Absorbed Dose in Cycle 1, max: 0.47 Gy/GBq
  Absorbed Dose in Cycle 1, min: 0.33 Gy/GBq
Cycle 1, excluding six patients with unusually high marrow doses and the patient with a superscan
  mean red marrow absorbed dose, remaining 20 patients: 0.02±0.02 Gy/GBq
Cycle 1, image-based method (L2-L4), mean±SD, patient 42-030 excluded
  mean red marrow (bone marrow) absorbed radiation dose: 0.08±0.12 Gy/GBq
[1]
  absorbed radiation dose per gram of tissue, kidneys: 0.41±0.15 Gy/GBq
  absorbed radiation dose per gram of tissue, lacrimal glands: 0.40±0.36 Gy/GBq
  absorbed radiation dose per gram of tissue, left colon: 0.47±0.31 Gy/GBq
  absorbed radiation dose per gram of tissue, rectum: 0.44±0.30 Gy/GBq
  absorbed radiation dose per gram of tissue, urinary bladder: 0.41±0.05 Gy/GBq
Cycle 1, target 7.4±10% GBq, mean±SD, patients 42-030 and 12-004 excluded
  absorbed radiation dose per gram of tissue, salivary glands: 0.19±0.16 Gy/GBq
